The nature of this series: GHS categories as the set defines them, by LD50: 1 up to 5, 2 up to 50, 3 up to 300, 4 up to 2000, 5 above 2000 mg/kg. As to conditions: rat; in vivo; po.

For `CCCC(=O)O[C@]1(C(=O)CCl)[C@@H](C)C[C@H]2[C@@H]3CCC4=CC(=O)C=C[C@]4(C)[C@@]3(F)C(=O)C[C@@]21C`, the GHS category worked out at 5.
In turn, `C[Si](C)(C)O[Si](C)(C)C` returned a GHS category of 5.
The molecule `CCCCCCCCCCCCCCCCCC(=O)NCCCCC(NC(=O)CCC(NC(=O)C(C)NC(=O)C(C)OC1C(O)C(CO)OC(O)C1NC(C)=O)C(N)=O)C(=O)O` (centres undefined) returned a GHS category of 4.
For the molecule `CC(F)(Cl)Cl`, the GHS category is given as 5.
Take `C=CCCCCCCCCC(OCC=C(C)CCC=C(C)C)OCC=C(C)CCC=C(C)C` (centres undefined): the GHS category turned out to be 5.
`CCCCCCCCCCCCCCCCCCOP(=O)(O)O` showed a GHS category of 5.
Under `CCCCCCCCCCCCCCCCCCCN` stands 5; under `Cc1ccc(NC(=O)c2cc(C)[nH]n2)cc1`, 5.
With `CCOC(=O)/C=C(C)/C=C/C=C(C)/C=C/c1c(C)cc(OC)c(C)c1C`, the GHS category was found to be 5.
Under `CC(C)=CCSC[C@H](N)C(=O)O` stands 5; under `NC(=O)N=NC(N)=O`, 5; under `COc1ccc2c(c1)CCN(c1ccccc1)C2c1cccc(Br)c1` (centres undefined), 4.
Turning to `COC(=O)N(OC)c1ccccc1COc1ccn(-c2ccc(Cl)cc2)n1`, the GHS category turned out to be 5.
For `CN(CC(=O)O)N=O`, the GHS category stood at 5.
As to `CCCCCCCCC=CCCCCCCOC(C)=O`, the GHS category is recorded as 5.
Molecule `O=C1c2ccccc2C2=Nc3cccc4cccc(c34)N12` gave a GHS category of 5.
Molecule `COc1ccccc1C1NC(=O)CCS1` (centres undefined) returned a GHS category of 5.
`O=C(O)c1[nH]n(-c2ccc(S(=O)(=O)O)cc2)c(=O)c1/N=N/c1ccc(S(=O)(=O)O)cc1`: the GHS category turned out to be 5.
Under `CCOC(=O)c1nn(-c2ccc(OC)cc2)c2c1CCN(c1ccc(N3CCCCC3=O)cc1)C2=O` stands 5; under `CCn1cc(C(=O)O)c(=O)c2cc(F)c(N3CCNCC3)nc21`, 5; under `COC(=O)C(C)(C)C(=O)OC1=C(C(=O)Nc2ccccn2)N(C)S(=O)(=O)c2cc(Cl)sc21`, 2.
For `O=C(O)c1cc(O)c2c3nc4ccccc4oc-3cc(=O)c2n1`, the GHS category was 5.
Turning to `CN/C(=N\[N+](=O)[O-])NCc1cnc(Cl)s1`, the GHS category was found to be 5.
Under `COCC1COC(Cn2cncn2)(c2cc3ccccc3o2)O1` (centres undefined) stands 4; under `c1ccc([I+]c2ccccc2)cc1`, 4.
`C=CC(C)(CCC=C(C)C)OC(=O)C(C)C` (centres undefined) had a GHS category of 5.
Consider `CNC(=O)C(=NNc1ccc(OC)cc1[N+](=O)[O-])C(C)=O`, for which the GHS category was 5.
As to `CN1c2c(oc(=NC3CCCCC3)n(C3CCCCC3)c2=O)-c2sc(Cl)cc2S1(=O)=O`, the GHS category is listed as 2.
Under `CCCC1CCOC(C)S1` (centres undefined) stands 5; under `ClC(=Nc1c(Cl)c(Cl)c(Cl)c(Cl)c1Cl)C(Cl)(Cl)Cl`, 4; under `Cc1cc(C(C)(C)C)c(O)c(C)c1Cn1c(=O)n(Cc2c(C)cc(C(C)(C)C)c(O)c2C)c(=O)n(Cc2c(C)cc(C(C)(C)C)c(O)c2C)c1=O`, 5.
The molecule `CC(CCC(=O)O)C1CCC2C3C(OS(=O)(=O)O)CC4CC(OS(=O)(=O)O)CCC4(C)C3CCC12C` (centres undefined) gave a GHS category of 5.
Under `CCN(CCCCOC(=O)c1ccc(OC)c(OC)c1)C1CCc2cc(OC)ccc2C1` (centres undefined) stands 5; under `CCCc1c(Cc2ccc(-c3ccccc3-c3nn[nH]n3)cc2)c(=O)nc2nc(C)[nH]n12`, 4; under `O=C(c1ccc(F)cc1)c1cc(I)ccc1Cl`, 5.
Under `COc1cc2c(s1)C(O)=C(C(=O)Nc1ccccn1)N(C)S2(=O)=O` stands 3.
As for `CCCCCCCCCCCCCOC(=O)CCCCC(=O)OCCCCCCCCCCCCC`, the GHS category is listed as 5.
`CCOC(=O)C(=O)Nc1cc(OC)nc(C)n1` showed a GHS category of 4.
In the case of `CCCCCCCC/C=C\CCCCCCCC(=O)OCC(C)(C)COC(=O)CCCCCCC/C=C\CCCCCCCC`, the GHS category came out at 5.

Values taken from the CATMoS acute toxicity set (Mansouri et al. 2021).
